The record followed here is patent EP4527828A1, “BIPHENYL COMPOUND, PHARMACEUTICAL COMPOSITION, METHOD FOR PREPARING SAME, AND USE THEREOF” (Longivitron (Suzhou) Biotechnology Co., Ltd, priority 2022, dated 2023).

In assay [1] the test system is mouse melanoma B16F10. It is filed as in vivo. The settings on record: B16F10, Table 7, 100 mg/kg intraperitoneally once. Here is the method: (§1) (1) 43 8-week-old female C57B/L mice were selected and divided into 5 cages. One preserved B16F10 tumor-bearing female C57L mouse was sacrificed by cervical dislocation. 75% alcohol was sprayed on the skin of the mouse in a laminar flow cabinet, and the tumor tissue of the tumor-bearing mouse was separated by sterilized surgical instruments and cut into a sterilized 5 mL homogenizer with ophthalmic scissors. The tumor tissue was slowly milled on ice to form a tumor fluid. The number of cells was 6.85 × 10^7 cells/mL as counted with a BioRad counting instrument. The tumor fluid was placed in an Erlenmeyer flask in an ice bath for later use. The tumor fluid was evenly aspirated using a 1 mL sterile syringe and inoculated 0.2 mL/C57/L mouse. After the inoculation was completed, the mice continued to be fed under the initial feeding conditions.
(§2) (4) The animals were sacrificed, and the tumors were separated and weighed. The animals in each group were treated immediately 1 h after administration on the last day and weighed, and the tumor tissue was weighed.
Animal grouping and administration: On the second day after tumor fluid inoculation of C57B/L mice, tumor-bearing mice were randomly grouped: a control group, a Compound 8-5 mg/kg group, a Compound 8-10 mg/kg group, a Compound 8-20 mg/kg group, and a positive control drug cyclophosphamide CTX-100 mg/kg group. The animals were weighed and administered daily. The drugs to be tested were administered orally daily, and the positive control drug CTX was administered intraperitoneally once. After the experiment was completed, the body weights and tumor weights of the animals were weighed, and the tumor weight inhibition rate (%) was calculated.

Assay [2] deals with mouse liver cancer HEPA1-6. The class given is in vivo. The settings on record: HEPA1-6, 100 mg/kg ip once, after 27 days of administration. On the procedure: (1) 32 8-week-old female C57L mice were selected and divided into 5 cages. HEPA1-6 cells cultured with DMEM + 10% FBS in vitro were washed with PBS and digested with 0.25% trypsin for 3 min. The digestion was terminated with a serum-containing medium, the cells were centrifuged at 2500 rpm for 5 min, the supernatant was discarded, and the cells were resuspended with an appropriate amount of PBS twice. The number of cells was 1.14 × 10^7 cells/mL as counted with a BioRad counting instrument. The cell suspension was placed in an Erlenmeyer flask in an ice bath for later use. The tumor fluid was evenly aspirated using a 1 mL sterile syringe and inoculated 0.2 mL/mouse. After the inoculation was completed, the mice continued to be fed under the initial feeding conditions.
(2) Animal grouping: On the second day after tumor fluid inoculation of C57B/L mice, 32 mice were randomly grouped: 8 mice in a control group, 6 mice in a Compound 4-5 mg/kg group, 6 mice in a Compound 4-10 mg/kg group, 6 mice in a Compound 4-20 mg/kg group, and 6 mice in a positive control drug cyclophosphamide (CTX)-100 mg/kg group. The drug test groups were given the drugs to be tested orally once a day, and the positive control drug CTX was injected intraperitoneally once. The mice were weighed and administered daily.
(3) Drug preparation: The corresponding amounts of the drugs to be tested were weighed according to the final concentrations of the experimental groups. The drugs of the Compound 4-5 mg/kg group, the Compound 4-10 mg/kg group, and the Compound 4-20 mg/kg group were prepared with 5% CMCNa + Tween 80, and CTX was prepared with normal saline. The mice in the control group were given 5% CMCNa solution orally. The dosages were as follows: 0.4 mL/20 g body weight of the animal for intragastric administration, and 0.2 mL/20 g body weight of the animal for intraperitoneal injection.
(4) The animals were sacrificed, and the tumors were separated and weighed. The animals in each group were treated immediately 1 h after administration on the last day and weighed, and the tumor tissue was separated and weighed.

In assay [3] the test system is mouse melanoma B16F10. It is filed as in vivo. The settings on record: B16F10, Table 6, 100 mg/kg ip once, after 15 days of administration. On the procedure: as §1
(2) Animal grouping and administration: On the second day after tumor fluid inoculation of C57B/L mice, 43 mice were randomly grouped: 10 mice in a control group, 8 mice in a Compound 4-20 mg/kg group, 8 mice in a Compound 4-30 mg/kg group, 8 mice in a Compound 4-40 mg/kg group, and 9 mice in a positive control drug cyclophosphamide CTX-100 mg/kg group. The mice were weighed and administered.
(3) Drug preparation: The corresponding amounts of the drugs were weighed according to the final concentrations of the experimental groups. The drugs of the Compound 4-20 mg/kg group and the Compound 4-30 mg/kg group were prepared with 0.25% CMCNa + Tween 80 and administered orally once a day. The drug of Compound 4-40 mg/kg was prepared with normal saline + Tween 80 and administered intraperitoneally. CTX was prepared with normal saline and administered intraperitoneally once. The mice in the control group were given 0.25% CMCNa solution orally.
as §2

Assay [4] deals with T1, LAG3/MHCII (Homo sapiens, UniProt P18627).
T1 sequence (P18627 23-450 limits assumed): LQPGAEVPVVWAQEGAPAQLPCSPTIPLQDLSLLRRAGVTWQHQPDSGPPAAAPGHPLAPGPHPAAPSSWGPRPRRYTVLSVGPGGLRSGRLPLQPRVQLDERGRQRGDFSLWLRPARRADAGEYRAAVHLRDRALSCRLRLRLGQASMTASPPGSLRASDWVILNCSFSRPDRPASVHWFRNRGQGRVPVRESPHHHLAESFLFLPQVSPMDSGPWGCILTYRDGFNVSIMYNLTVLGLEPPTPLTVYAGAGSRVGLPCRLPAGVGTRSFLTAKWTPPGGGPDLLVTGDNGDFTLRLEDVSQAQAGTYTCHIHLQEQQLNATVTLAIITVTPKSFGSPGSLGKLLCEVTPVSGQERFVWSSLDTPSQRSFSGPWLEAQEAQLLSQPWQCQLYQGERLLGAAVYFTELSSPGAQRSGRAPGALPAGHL
The experiment in a line: HTRF binding inhibition of LAG3 and its ligand MHCII. As to conditions: binding inhibition LAG3/MHCII. On the procedure:
HTRF (Homogeneous time-resolved fluorescence) is based on two techniques, fluorescence resonance energy transfer (FRET) and time-resolved fluorescence (TRF). The detection was carried out using a 384-well plate. 2 µL of a compound to be tested with an appropriate concentration was collected, 4 µL of Tag1-LAG3 protein (with a final concentration of 10 nmol·L^-1) was added, 4 µL of Tag2-MHCII (with a final concentration of 20 nmol·L^-1) was added, and the plate was incubated at room temperature for 15 min. 10 µL of Anti-Tag1-Tb working solution (prepared by adding 25 µL of Anti-Tag1-Tab mother solution to 2475 µL of dilution buffer) was added, 10 µL of Anti-Tag2-XL665 working solution (prepared by adding 25 µL of Tag2-XL665 mother solution to 2475 µL of dilution buffer) was added, and the plate was sealed with a film and incubated at room temperature for 1 h. The detection was carried out using a Perkin Elma Envision instrument.

The target in assay [5] is T2, LAG3/FGL1 (Homo sapiens, UniProt P18627).
T2 sequence (P18627 23-450 limits assumed): T1 sequence (P18627 23-450 limits assumed)
Kind of assay: HTRF binding inhibition of LAG3 and its ligand FGL1. The settings on record: binding inhibition LAG3/FGL1; read-out: IC50. Here is the method: Reagent preparation: ① Tag1-LAG3 protein: a protein solution with a concentration of 50 nM (20 µL with a final system concentration of 10 nM) was prepared using a diluent. ② Tag2-FGL1 protein: a protein solution with a concentration of 100 nM (20 µL with a final system concentration of 20 nM) was prepared using a diluent. ③ Anti-Tag1-Tb: a 100× stock solution was diluted with a detection buffer to a 1 × stock solution. ④ Anti-Tag2-XL665: a 100× stock solution was diluted with a detection buffer to a 1 × stock solution.
Assay step: (1) 2 µL of compound solution (with a concentration to be measured of 10×) was added to a 384-well opaque plate having a white background, 4 µL of Tag1-LAG3 protein and 4 µL of Tag2-FGL1 protein were added, respectively, and the plate was incubated at room temperature for 15 min; (2) Anti-Tag1-Tb and Anti-Tag2-XL665 were mixed at a ratio of 1:1 in advance, and 10 µL of mix solution was added to each well; (3) the plate was gently mixed, sealed, and incubated at room temperature for 1 h or overnight before detection.
For orientation: Time-resolved FRET reads energy transfer from a long-lived donor to a nearby acceptor.

Where two headings read alike, the source gives them in different places.

In the case of `O=P1(N(CCCl)CCCl)NCCCO1` (centres unmarked) [CTX, cyclophosphamide, reference compound], the Inhibition rate in assay [1] is 82.93%; in assay [2], -18.65%; in assay [3] it was 61.20%. Also, the Tumor weight was 0.30 ± 0.10 g in assay [1], 0.804 ± 0.459 g in assay [2] and 1.128 ± 0.394 g in assay [3].
One may read the IC50 as the point on the concentration scale where inhibition reaches its midpoint. `CCCCCCOc1ccc(C(=O)NCCCCNC(=O)C(F)(F)F)cc1-c1cc(C(=O)NCCCCNC(=O)C(F)(F)F)ccc1OCCCCCC` [Compound 13]: the values for the IC50 in assay [4] and in assay [5] were 4.01 µM and 46 µM, respectively.
